Data published in US10435399B2, “HDAC6 inhibitory heterocyclic compound” (TAKEDA PHARMACEUTICAL COMPANY LIMITED, priority 2017, dated 2019).

Key:
[1] = test system: acetylated tubulin in brain (hippocampus); assay: Increase in acetylated tubulin in brain (hippocampus ELISA); type: in vivo, C57BL/6J mouse; settings: mouse hippocampus, oral 3 mg/kg, 1 h after administration, vs vehicle
Procedure: Increase in Acetylated Tubulin in Brain
A drug was suspended in 0.5% methyl cellulose to prepare a suspension for administration, having a concentration shown in Table 3. The suspension was orally administered into 8 to […] male C57BL/6J mouse, and after the passage of the time shown in Table 3, the brain was taken out, and hippocampus was obtained. The hippocampus was homogenized under RIPA extract (Wako) to which protease inhibitor (Thermo) and phosphatase inhibitor (Thermo) were added, and centrifuged in 15,000 g for 15 min to prepare a protein extract. The acetylated tubulin and total tubulin in the extract were detected by the following ELISA method. Tubulin antibody (Sigma) was immobilized on 96-well plate (Microlite2+, Thermo), and the plate was stored at 4° C. […] The plate was washed, HRP substrate was added thereto, and the luminescence was measured using a plate reader. The acetylated tubulin and total tubulin were quantified from logistics curve based on dilution series using the mouse hippocampus tissue extract, and the acetylated tubulin relative to total tubulin was calculated, and evaluated as an relative tubulin acetylation level. […] After F test for vehicle group and drug group, the significant difference between the two groups was analyzed by Student t-test or Welch test (indicated as * p<0.05, ** p<0.01). […]

TK6 cells = assay: γH2AX assay using TK6 cells; type: cell-based, Human; settings: 4 hr treatment, up to 100 μM
Procedure: γH2AX Assay Using TK6 Cells
Human lymphoblasts-derived TK6 cells were treated with the compounds of Examples 489, 512 or 519 at 0, 10, 30 or 100 μmol/L (final concentration) for 4 hr, and the presence or absence of DNA damage was evaluated by measuring phosphorylation of histone H2AX (γH2AX) as a marker. In addition, cytotoxicity after 24-hr treatment was also evaluated.
Exponentially growing TK6 cells were prepared at the cell density of 4×10^5 cells/mL in a culture medium, and was added to a 96-well plate by 100 μL/well. A test compound solution (2% DMSO) prepared using a culture solution, having twice the concentration on the above-mentioned final concentrations, was added thereto by 100 μL/well. This plate was incubated at 37° C., the cell suspension after 4 hr was sampled, and stained using In Vitro MultiFlow™ DNA Damage Kit (Litron), and H2AX phosphorylation level in each nucleus was measured using a flow cytometer and average value was calculated. The H2AX phosphorylation level in the concurrent vehicle control group was also measured and average value was calculated. The rate of change in the H2AX phosphorylation level in the treatment groups relative to that in the control group was calculated, and Dunnett test (significance level: two-tailed 1%) was performed. In addition, the cell suspension after 24 hr treatment was sampled, and the nucleus number was measured, and variation in the nucleus number in the treatment groups relative to that in the concurrent vehicle control group was used as an indicator of cytotoxicity. […] Therefore, the potential of the compounds for DNA strand breakage was judged to be negative under this test condition.

HDAC6 enzyme = target: T1, HDAC6 enzyme (Homo sapiens, UniProt Q9UBN7); assay: HDAC6 enzyme inhibitory activity (HDAC-Glo I/II Assay kit); type: biochemical; settings: 10 μM; wells without enzyme = 100% inhibition; read-out: HDAC6 inhibitory rate (%) (10 μM)
T1 construct: transducing full length HDAC6 gene into Sf-9 insect cells; GST; purchased SignalChem; host or cells: Sf-9 insect cells
T1 sequence (Q9UBN7 1-1215): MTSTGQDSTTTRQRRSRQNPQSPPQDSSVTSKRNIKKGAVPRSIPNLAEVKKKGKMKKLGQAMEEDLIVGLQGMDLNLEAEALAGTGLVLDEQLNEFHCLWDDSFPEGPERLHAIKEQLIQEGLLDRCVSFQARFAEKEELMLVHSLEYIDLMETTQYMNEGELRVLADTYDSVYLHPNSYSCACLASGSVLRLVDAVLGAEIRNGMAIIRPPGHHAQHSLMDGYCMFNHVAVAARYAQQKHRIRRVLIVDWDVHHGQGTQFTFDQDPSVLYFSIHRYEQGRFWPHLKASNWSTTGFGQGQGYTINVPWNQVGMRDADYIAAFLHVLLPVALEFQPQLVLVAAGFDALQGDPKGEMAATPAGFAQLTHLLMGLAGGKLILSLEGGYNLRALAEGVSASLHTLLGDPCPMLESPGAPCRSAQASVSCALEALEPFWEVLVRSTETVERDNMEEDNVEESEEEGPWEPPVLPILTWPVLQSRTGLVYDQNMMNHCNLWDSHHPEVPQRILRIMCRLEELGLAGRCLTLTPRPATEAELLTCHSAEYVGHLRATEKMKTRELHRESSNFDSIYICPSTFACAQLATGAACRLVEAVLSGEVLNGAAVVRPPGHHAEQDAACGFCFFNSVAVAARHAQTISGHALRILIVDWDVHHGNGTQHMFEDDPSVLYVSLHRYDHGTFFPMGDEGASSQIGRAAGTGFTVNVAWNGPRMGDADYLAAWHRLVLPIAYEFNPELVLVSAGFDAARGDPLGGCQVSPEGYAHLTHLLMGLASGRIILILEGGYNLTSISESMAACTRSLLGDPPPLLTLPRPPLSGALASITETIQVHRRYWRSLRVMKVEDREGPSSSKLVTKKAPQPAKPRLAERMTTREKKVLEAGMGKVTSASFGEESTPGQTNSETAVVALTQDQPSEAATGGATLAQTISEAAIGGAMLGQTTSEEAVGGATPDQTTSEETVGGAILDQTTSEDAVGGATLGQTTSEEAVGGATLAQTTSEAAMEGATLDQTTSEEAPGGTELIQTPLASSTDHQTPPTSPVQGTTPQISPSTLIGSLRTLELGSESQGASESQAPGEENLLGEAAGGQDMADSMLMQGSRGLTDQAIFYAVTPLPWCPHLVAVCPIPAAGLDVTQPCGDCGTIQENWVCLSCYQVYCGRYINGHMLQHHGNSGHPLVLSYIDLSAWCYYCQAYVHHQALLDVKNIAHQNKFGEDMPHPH
Method in brief: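 Inhibition is calculated as relative activity, taking luminescence in enzyme-free wells as complete inhibition. The enzyme, full-length and GST-purified after Sf-9 expression, was exposed to compound for 60 min at room temperature before a 20 min HDAC-Glo reaction.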

tauopathy mouse model = settings: cited from earlier work

potential for DNA strand breakage (judgement) (TK6 cells) | inhibition at 10 µM (HDAC6 enzyme) [%] | Structure (SMILES) | relative tubulin acetylation level (acetylated tubulin relative to total tubulin) [1] | histone H2AX phosphorylation (γH2AX) resulted from DNA strand breakage (TK6 cells) | acetylation of tubulin (tauopathy mouse model) | therapeutic effectiveness (tauopathy mouse model)
negative | 99 | CC(F)(F)C(=O)N[C@H]1[C@H](N2Cc3ccc(-c4nnc(C(F)F)o4)cc3C2=O)CCCC1(F)F [Example 512, N-((1S,6R)-6-(6-(5-(difluoromethyl)-1,3,4-oxadiazol-2-yl)-1-oxo-1,3-dihydro-2H-isoindol-2-yl)-2,2-difluorocyclohexyl)-2,2-difluoropropanamide] | increase in significant tubulin acetylation level was observed | did not induce histone H2AX phosphorylation |  | 
 |  | CN1CCc2c(c3ccccc3n2Cc2ccc(C(=O)NO)cc2)C1 [Tubastatin A] |  |  | increases acetylation of tubulin | shows therapeutic effectiveness
